Biological target: T1, hMC2 receptor (Homo sapiens, UniProt Q01718)
T1 construct: host or cells: CRE-bla-CHO-K1 cells
Assay: hMC2 membrane binding assay ([125I]ACTH (1-39) Tyr23, SPA)
Settings: crude membranes of CRE-bla-CHO-K1 cells expressing hMC2 receptor and hMRAP; 0.2 nM [125I]ACTH (1-39) Tyr23; 1.5 hours at room temperature; read-out: MC2R binding potency
Protocol: Crude membrane fractions are prepared from CRE-bla-CHO-K1 cells stably expressing hMC2 receptor and hMRAP accessory protein (Thermo Fisher). The cells are grown to 85-100% confluence on standard tissue culture dishes in GlutaMax DMEM growth media (Gibco) with following additives: 10% dialyzed FBS (Gemini), 0.1 mM NEAA (Gibco), 25 mM HEPES (Gibco), 5 μg/mL blasticidin (Goldbio), 100 μg/mL zeocin (Invitrogen), 600 μg/mL hygromycin (Goldbio). To prepare membranes, cells are scraped and collected in 1× Dulbecco's phosphate buffered saline (Corning) and then pelleted at 1000 RPM's. The cell pellet is reconstituted in membrane preparation buffer (20 mM HEPES, 6 mM MgCl2 and 1 mM EGTA, protease inhibitor tablets (Pierce) adjusted to pH 7.4), homogenized using a dounce homogenizer, and the resulting membrane fraction is pelleted by centrifugation at 12,000 RPM's. The membrane pellet is resuspended in membrane preparation buffer, snap freezed and stored at −80° C. for later use.
The hMC2 membrane binding assay utilizes the following components: radiolabel [^125I]ACTH (1-39) Tyr23 (PerkinElmer), wheatgerm agglutinin coated PVT SPA beads (PerkinElmer), crude hMC2R membranes, and compounds. Briefly hMC2R membranes are incubated with SPA beads in binding assay buffer (50 mM HEPES, 5 mM MgCl2, 1 mM CaCl2), 0.2% BSA, protease inhibitor tablets (Pierce) adjusted to pH7.4) prior to assay initiation. […] Assay plates are read using a Top Count NXT and Ki values for compounds are determined using a GraphPad Prism 6 non-linear regression analysis.

T1 sequence (Q01718 whole entry): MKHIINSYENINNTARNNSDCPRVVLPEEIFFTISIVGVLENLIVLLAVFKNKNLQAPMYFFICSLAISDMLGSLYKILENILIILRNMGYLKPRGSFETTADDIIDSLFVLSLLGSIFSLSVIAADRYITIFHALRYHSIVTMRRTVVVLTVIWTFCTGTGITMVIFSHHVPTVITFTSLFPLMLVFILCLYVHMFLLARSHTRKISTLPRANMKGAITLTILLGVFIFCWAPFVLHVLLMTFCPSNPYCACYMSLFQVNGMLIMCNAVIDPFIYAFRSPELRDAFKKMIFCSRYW
T1 sequence (Q8TCY5 whole entry partner): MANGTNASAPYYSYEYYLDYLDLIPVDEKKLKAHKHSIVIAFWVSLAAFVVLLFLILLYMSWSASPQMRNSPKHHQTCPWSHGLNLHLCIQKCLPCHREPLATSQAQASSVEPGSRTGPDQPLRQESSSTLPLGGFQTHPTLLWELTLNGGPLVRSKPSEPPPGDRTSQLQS

| Compound | Ki |
| --- | --- |
| CCOc1ncccc1-c1ccc2c(c1)N(C(=O)[C@H]1CCNC1)CC21CCN(c2ccc(C(F)(F)F)cc2C#N)CC1 [1-10, 2-[6-(2-ethoxypyridin-3-yl)-1-[(3S)-pyrrolidine-3-carbonyl]-1,2-dihydrospiro[indole-3,4′-piperidin]-1′-yl]-5-(trifluoromethyl)benzonitrile] | 10 to 100 nM |
| C[C@@H](N)CN1CC2(CCN(c3ccc(C(F)(F)F)cc3C#N)CC2)c2ccc(-c3ccccc3CO)cc21 [1-42, 2-{1-[(2R)-2-aminopropyl]-6-[2-(hydroxymethyl)phenyl]-1,2-dihydrospiro[indole-3,4′-piperidin]-1′-yl}-5-(trifluoromethyl)benzonitrile] | 10 to 100 nM |
| CCOc1ncccc1-c1ccc2c(n1)N(C[C@@H](C)N)CC21CCN(c2ccc(C(F)(F)F)cc2C#N)CC1 [1-46, 2-{1′-[(2R)-2-aminopropyl]-6′-(2-ethoxypyridin-3-yl)-1′,2′-dihydrospiro[piperidine-4,3′-pyrrolo[2,3-b]pyridin]-1-yl}-5-(trifluoromethyl)benzonitrile] | < 10 nM |
| CCOc1ncccc1-c1ccc2c(n1)N(CCNC)C(=O)C21CCN(c2ccc(C(F)(F)F)cc2C#N)CC1 [1-63, 2-[6′-(2-ethoxypyridin-3-yl)-1′-[2-(methylamino)ethyl]-2′-oxo-1′,2′-dihydrospiro[piperidine-4,3′-pyrrolo[2,3-b]pyridin]-1-yl]-5-(trifluoromethyl)benzonitrile] | < 10 nM |
| CCOc1ncccc1-c1ccc2c(n1)N(C[C@@H](C)N)C(=O)C21CCN(c2ccc(C(F)(F)F)cc2C#N)CC1 [1-61, 2-{1′-[(2R)-2-aminopropyl]-6′-(2-ethoxypyridin-3-yl)-2′-oxo-1′,2′-dihydrospiro[piperidine-4,3′-pyrrolo[2,3-b]pyridin]-1-yl}-5-(trifluoromethyl)benzonitrile] | < 10 nM |
| 2-[1′-(3-aminopropyl)-7′-(2-ethoxypyridin-3-yl)-2′-oxo-2′,3′-dihydro-1′H-spiro[piperidine-4,4′-quinolin]-1-yl]-5-(trifluoromethyl)benzonitrile [1-67] | 10 to 100 nM |
| CCOc1ccc(N2CCC3(CC2)CN(C(=O)CCN)c2cc(-c4cccnc4OCC)ccc23)c(C#N)n1 [1-44, 3-[1-(3-aminopropanoyl)-6-(2-ethoxypyridin-3-yl)-1,2-dihydrospiro[indole-3,4′-piperidin]-1′-yl]-6-ethoxypyridine-2-carbonitrile] | 10 to 100 nM |
| CCOc1ncccc1-c1ccc2c(c1)N([C@H]1CCNC1)C(=O)C21CCN(c2ccc(C(F)(F)F)cc2C#N)CC1 [1-17, 2-[6-(2-ethoxypyridin-3-yl)-2-oxo-1-[(3S)-pyrrolidin-3-yl]-1,2-dihydrospiro[indole-3,4′-piperidin]-1′-yl]-5-(trifluoromethyl)benzonitrile] | 10 to 100 nM |
| CCOc1ncccc1-c1ccc2c(n1)N(C(=O)CCN(C)C)CC21CCN(c2ccc(C(F)(F)F)cc2C#N)CC1 [1-58, 2-{1′-[3-(dimethylamino)propanoyl]-6′-(2-ethoxypyridin-3-yl)-1′,2′-dihydrospiro[piperidine-4,3′-pyrrolo[2,3-b]pyridin]-1-yl}-5-(trifluoromethyl)benzonitrile] | < 10 nM |
| CCOc1ncccc1-c1ccc2c(c1)N(C(=O)CCN)CC21CCN(c2ccc(Cl)cc2C(F)(F)F)CC1 [1-22, 3-amino-1-{1′-[4-chloro-2-(trifluoromethyl)phenyl]-6-(2-ethoxypyridin-3-yl)-1,2-dihydrospiro[indole-3,4′-piperidin]-1-yl}propan-1-one] | 10 to 100 nM |
| CCOc1ncccc1-c1ccc2c(c1)N(CCNC)C(=O)NC21CCN(c2ccc(C(F)(F)F)cc2C#N)CC1 [1-65, 2-[7′-(2-ethoxypyridin-3-yl)-1′-[2-(methylamino)ethyl]-2′-oxo-2′,3′-dihydro-1′H-spiro[piperidine-4,4′-quinazolin]-1-yl]-5-(trifluoromethyl)benzonitrile] | < 10 nM |
| CCOc1ncccc1-c1ccc2c(c1)N(C(=O)CCN)CC21CCN(c2ccc(OC)nc2C#N)CC1 [1-43, 3-[1-(3-aminopropanoyl)-6-(2-ethoxypyridin-3-yl)-1,2-dihydrospiro[indole-3,4′-piperidin]-1′-yl]-6-methoxypyridine-2-carbonitrile] | 10 to 100 nM |
| CCOc1ccc(N2CCC3(CC2)CN(C(=O)CCN)c2cc(-c4cccnc4OCC)ccc23)nc1C(F)(F)F [1-25, 3-amino-1-{1′-[5-ethoxy-6-(trifluoromethyl)pyridin-2-yl]-6-(2-ethoxypyridin-3-yl)-1,2-dihydrospiro[indole-3,4′-piperidin]-1-yl}propan-1-one] | 1000 to 10000 nM |
| CCOc1ncccc1-c1ccc2c(c1)N(C(=O)N[C@H]1CCNC1)CC21CCN(c2ccc(C(F)(F)F)cc2C#N)CC1 [1-33, 1′-[2-cyano-4-(trifluoromethyl)phenyl]-6-(2-ethoxypyridin-3-yl)-N-[(3S)-pyrrolidin-3-yl]-1,2-dihydrospiro[indole-3,4′-piperidine]-1-carboxamide] | 10 to 100 nM |
| CCOc1ncccc1-c1ccc2c(c1)N([C@@H]1CCN(C)C1)C(=O)C21CCN(c2ccc(C(F)(F)F)cc2C#N)CC1 [1-21, 2-[6-(2-ethoxypyridin-3-yl)-1-[(3R)-1-methylpyrrolidin-3-yl]-2-oxo-1,2-dihydrospiro[indole-3,4′-piperidin]-1′-yl]-5-(trifluoromethyl)benzonitrile] | 10 to 100 nM |
| CCOc1ncccc1-c1ccc2c(n1)N(C(=O)N[C@@H]1CCNC1)CC21CCN(c2ccc(C(F)(F)F)cc2C#N)CC1 [1-57, 1-[2-cyano-4-(trifluoromethyl)phenyl]-6′-(2-ethoxypyridin-3-yl)-N-[(3R)-pyrrolidin-3-yl]-1′,2′-dihydrospiro[piperidine-4,3′-pyrrolo[2,3-b]pyridine]-1′-carboxamide] | 10 to 100 nM |
| CCOc1ncccc1-c1ccc2c(c1)N(C[C@@H](C)N)C(=O)CC21CCN(c2ccc(C(F)(F)F)cc2C#N)CC1 [1-70, 2-{1′-[(2R)-2-aminopropyl]-7′-(2-ethoxypyridin-3-yl)-2′-oxo-2′,3′-dihydro-1′H-spiro[piperidine-4,4′-quinolin]-1-yl}-5-(trifluoromethyl)benzonitrile] | 10 to 100 nM |

More lines, now with the values ahead:

| Ki | Compound |
| --- | --- |
| 10 to 100 nM | CCOc1ncccc1-c1ccc2c(c1)N(C(=O)NC[C@@H](C)N)CC21CCN(c2ccc(C(F)(F)F)cc2C#N)CC1 [1-30, N-[(2R)-2-aminopropyl]-1′-[2-cyano-4-(trifluoromethyl)phenyl]-6-(2-ethoxypyridin-3-yl)-1,2-dihydrospiro[indole-3,4′-piperidine]-1-carboxamide] |
| 10 to 100 nM | CCOc1ncccc1-c1ccc2c(c1)N(CCN)CC21CCN(c2ccc(C(F)(F)F)cc2C#N)CC1 [1-12, 2-[1-(2-aminoethyl)-6-(2-ethoxypyridin-3-yl)-1,2-dihydrospiro[indole-3,4′-piperidin]-1′-yl]-5-(trifluoromethyl)benzonitrile] |
| 10 to 100 nM | CCOc1ncccc1-c1ccc2c(c1)N(C(=O)NC[C@H](C)N)CC21CCN(c2ccc(C(F)(F)F)cc2C#N)CC1 [1-31, N-[(2S)-2-aminopropyl]-1′-[2-cyano-4-(trifluoromethyl)phenyl]-6-(2-ethoxypyridin-3-yl)-1,2-dihydrospiro[indole-3,4′-piperidine]-1-carboxamide] |
| 10 to 100 nM | CCOc1ncccc1-c1ccc2c(c1)N(C(=O)C[C@H](C)N)CC21CCN(c2ccc(C(F)(F)F)cc2C#N)CC1 [1-5, 2-{1-[(3 S)-3-aminobutanoyl]-6-(2-ethoxypyridin-3-yl)-1,2-dihydrospiro[indole-3,4′-piperidin]-1′-yl}-5-(trifluoromethyl)benzonitrile] |
| 10 to 100 nM | CCOc1ncccc1-c1ccc2c(c1)N([C@@H](C)CN)CC21CCN(c2ccc(C(F)(F)F)cc2C#N)CC1 [1-41, 2-{1-[(2S)-1-aminopropan-2-yl]-6-(2-ethoxypyridin-3-yl)-1,2-dihydrospiro[indole-3,4′-piperidin]-1′-yl}-5-(trifluoromethyl)benzonitrile] |
| 10 to 100 nM | CCOc1ncccc1-c1ccc2c(c1)N(C(=O)CCCN)CC21CCN(c2ccc(C(F)(F)F)cc2C#N)CC1 [1-11, 2-[1-(4-aminobutanoyl)-6-(2-ethoxypyridin-3-yl)-1,2-dihydrospiro[indole-3,4′-piperidin]-1′-yl]-5-(trifluoromethyl)benzonitrile] |
| 10 to 100 nM | CCOc1ncccc1-c1ccc2c(c1)N(C(=O)C[C@@H](C)N)CC21CCN(c2ccc(C(F)(F)F)cc2C#N)CC1 [1-6, 2-{1-[(3R)-3-aminobutanoyl]-6-(2-ethoxypyridin-3-yl)-1,2-dihydrospiro[indole-3,4′-piperidin]-1′-yl}-5-(trifluoromethyl)benzonitrile] |
| 10 to 100 nM | CCOc1ncccc1-c1ccc2c(c1)N(C(=O)CN)CC21CCN(c2ccc(C(F)(F)F)cc2C#N)CC1 [1-1, 2-[1-(2-aminoacetyl)-6-(2-ethoxypyridin-3-yl)-1,2-dihydrospiro[indole-3,4′-piperidin]-1′-yl]-5-(trifluoromethyl)benzonitrile] |

— US12466829B2, “Spirocyclic piperidine melanocortin subtype-2 receptor (MC2R) antagonists and uses thereof” (Crinetics Pharmaceuticals, Inc., priority 2019, dated 2025)
